pIC50: −log10 of the molar value. Structures can show the parent of a compound that is named as a salt.

Chain of ROCK2 (O75116 whole entry, species assumed): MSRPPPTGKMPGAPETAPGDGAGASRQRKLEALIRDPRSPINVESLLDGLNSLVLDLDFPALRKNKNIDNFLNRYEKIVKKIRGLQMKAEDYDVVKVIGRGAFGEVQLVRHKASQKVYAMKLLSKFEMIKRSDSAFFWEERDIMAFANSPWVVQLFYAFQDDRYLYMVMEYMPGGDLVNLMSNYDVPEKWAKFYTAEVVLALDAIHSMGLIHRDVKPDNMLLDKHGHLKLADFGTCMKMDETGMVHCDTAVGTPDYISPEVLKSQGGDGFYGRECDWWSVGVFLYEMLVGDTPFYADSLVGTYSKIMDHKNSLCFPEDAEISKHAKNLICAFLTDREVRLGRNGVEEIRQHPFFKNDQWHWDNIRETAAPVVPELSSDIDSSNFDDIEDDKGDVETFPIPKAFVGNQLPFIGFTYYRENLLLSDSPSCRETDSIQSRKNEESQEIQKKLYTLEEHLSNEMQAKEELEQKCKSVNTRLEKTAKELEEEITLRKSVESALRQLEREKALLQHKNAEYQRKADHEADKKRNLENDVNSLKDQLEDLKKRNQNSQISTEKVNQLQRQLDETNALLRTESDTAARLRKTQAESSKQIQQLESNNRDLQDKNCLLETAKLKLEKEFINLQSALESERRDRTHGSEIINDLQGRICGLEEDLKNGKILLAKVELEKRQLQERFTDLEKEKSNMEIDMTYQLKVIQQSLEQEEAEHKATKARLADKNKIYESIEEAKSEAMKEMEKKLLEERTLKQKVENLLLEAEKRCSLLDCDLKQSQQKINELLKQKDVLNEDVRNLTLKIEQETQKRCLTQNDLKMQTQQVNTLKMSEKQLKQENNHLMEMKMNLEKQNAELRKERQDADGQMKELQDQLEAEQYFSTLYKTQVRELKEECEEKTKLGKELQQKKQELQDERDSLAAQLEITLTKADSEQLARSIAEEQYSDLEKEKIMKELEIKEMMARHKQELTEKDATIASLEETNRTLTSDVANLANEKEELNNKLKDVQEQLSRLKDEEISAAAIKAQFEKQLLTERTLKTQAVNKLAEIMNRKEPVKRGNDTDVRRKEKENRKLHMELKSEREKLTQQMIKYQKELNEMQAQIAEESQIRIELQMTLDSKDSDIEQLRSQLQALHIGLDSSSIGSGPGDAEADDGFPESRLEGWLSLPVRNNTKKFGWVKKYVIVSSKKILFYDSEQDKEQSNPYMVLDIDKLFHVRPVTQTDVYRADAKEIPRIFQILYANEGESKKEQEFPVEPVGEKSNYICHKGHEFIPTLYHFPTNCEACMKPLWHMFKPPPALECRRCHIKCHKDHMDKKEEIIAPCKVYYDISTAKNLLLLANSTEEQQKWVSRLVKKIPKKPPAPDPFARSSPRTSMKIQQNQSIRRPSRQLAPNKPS

The experiment concerns the target ROCK2 (Homo sapiens, UniProt O75116). The experiment in a line: ROCK2 kinase inhibition assay (Caliper LABCHIP, FITC peptide substrate). Conditions: 5 μM ATP, 1.5 μM peptide substrate; value ranges. It is filed as biochemical. The gist of the method:
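Dose-response curves gave IC50 from inhibition of peptide phosphorylation, measured by LabChip separation after EDTA stop. Reactions used 1.5 μM FITC-labelled peptide, 5 μM ATP, 20 mM HEPES pH 7.5 with MgCl2, Brij-35, DTT, and under 2% DMSO.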
`COc1cccc(C(CCO)N2CCN(c3ccc(-c4cn[nH]c4)c(OC)c3)C2=O)c1` (stereo not shown) [Example 21, 1-(3-Hydroxy-1-(3-methoxyphenyl)propyl)-3-(3-methoxy-4-(1H-pyrazol-4-yl)phenyl)imidazolidin-2-one] showed a negative logarithm of the IC50 (pIC50) of 7.70 to 8.68.

With `COc1cccc(C(CC(C)(C)O)N2CCN(c3ccc(-c4cn[nH]c4)c(OC)c3)C2=O)c1` (stereo not shown) [Example 22, 1-(3-Hydroxy-1-(3-methoxyphenyl)-3-methylbutyl)-3-(3-methoxy-4-(1H-pyrazol-4-yl)phenyl)imidazolidin-2-one], the pIC50 is 5.70 to 6.70.

With `CCc1cc(N2CCN(Cc3cccc(OC)c3)C2=O)ccc1-c1cn[nH]c1` [Example 23, 1-(3-Ethyl-4-(1H-pyrazol-4-yl)phenyl)-3-(3-methoxybenzyl)imidazolidin-2-one], the pIC50 was 7.70 to 8.68.

In the case of `CCc1cc(N2CCN(Cc3cccc(F)c3)C2=O)ccc1-c1cn[nH]c1` [Example 24, 1-(3-Ethyl-4-(1H-pyrazol-4-yl)phenyl)-3-(3-fluorobenzyl)imidazolidin-2-one], the negative-log IC50 (pIC50) is 7.70 to 8.68.

As for `CCc1cc(N2CCN(Cc3ccccc3F)C2=O)ccc1-c1cn[nH]c1` [Example 25, 1-(3-Ethyl-4-(1H-pyrazol-4-yl)phenyl)-3-(2-fluorobenzyl)imidazolidin-2-one], the negative-log IC50 (pIC50) is 6.70 to 7.70.

`CCc1cc(N2CCN(Cc3ccccc3)C2=O)ccc1-c1cn[nH]c1` [Example 26, 1-Benzyl-3-(3-ethyl-4-(1H-pyrazol-4-yl)phenyl)imidazolidin-2-one] gave a pIC50 of 6.70 to 7.70.

`CCc1cc(N2CCN(CCc3cccc(OC)c3)C2=O)ccc1-c1cn[nH]c1` [Example 27, 1-(3-Ethyl-4-(1H-pyrazol-4-yl)phenyl)-3-(3-methoxyphenethyl)imidazolidin-2-one, TFA] showed a negative-log IC50 (pIC50) of 5.70 to 6.70.

Compound `CCOC(=O)C1CN(Cc2ccccc2)C(=O)N1c1ccc(-c2cn[nH]c2)cc1` (stereo not shown) [Example 29, Ethyl 3-(4-(1H-pyrazol-4-yl)phenyl)-1-benzyl-2-oxoimidazolidine-4-carboxylate] showed a pIC50 of 6.70 to 7.70.

Take `O=C1N(Cc2ccccc2)CC(CO)N1c1ccc(-c2cn[nH]c2)cc1` (stereo not shown) [Example 30, 3-(4-(1H-Pyrazol-4-yl)phenyl)-1-benzyl-4-(hydroxymethyl)imidazolidin-2-one]: the pIC50 is 6.70 to 7.70.

In turn, `COc1cc(N2CCN(Cc3ccccc3-c3cn[nH]c3)C2=O)ccc1-c1cn[nH]c1` [Example 31, 1-(2-(1H-Pyrazol-4-yl)benzyl)-3-(3-methoxy-4-(1H-pyrazol-4-yl)phenyl)imidazolidin-2-one, TFA] showed a pIC50 of 6.70 to 7.70.

The compound `O=C(O)C1CN(c2ccc(-c3cn[nH]c3)cc2)C(=O)N1Cc1cccc(F)c1` (stereo not shown) [Example 32, 1-(4-(1H-Pyrazol-4-yl)phenyl)-3-(3-fluorobenzyl)-2-oxoimidazolidine-4-carboxylic Acid] had a negative-log IC50 (pIC50) of 5.70 to 6.70.

As to `O=C(O)C1CN(Cc2cccc(F)c2)C(=O)N1c1ccc(-c2cn[nH]c2)cc1` (stereo not shown) [Example 33, 3-(4-(1H-Pyrazol-4-yl)phenyl)-1-(3-fluorobenzyl)-2-oxoimidazolidine-4-carboxylic Acid], the pIC50 was 5.70 to 6.70.

In turn, `COC(=O)C1CN(Cc2cccc(F)c2)C(=O)N1c1ccc(-c2cn[nH]c2)cc1` (stereo not shown) [Example 34, Methyl 3-(4-(1H-pyrazol-4-yl)phenyl)-1-(3-fluorobenzyl)-2-oxoimidazolidine-4-carboxylate] had a pIC50 of 6.70 to 7.70.

In the case of `COc1cccc(CN2CC(C(=O)O)N(c3ccc(-c4cn[nH]c4)cc3)C2=O)c1` (stereo not shown) [Example 35, 3-(4-(1H-Pyrazol-4-yl)phenyl)-1-(3-methoxybenzyl)-2-oxoimidazolidine-4-carboxylic Acid], the negative-log IC50 (pIC50) was 6.70 to 7.70.

On to `CCOC(=O)C1CN(Cc2cccc(OC)c2)C(=O)N1c1ccc(-c2cn[nH]c2)cc1` (stereo not shown) [Example 36, Ethyl 3-(4-(1H-pyrazol-4-yl)phenyl)-1-(3-methoxybenzyl)-2-oxoimidazolidine-4-carboxylate], for which the pIC50 is 7.70 to 8.68.

On to `O=C1N(c2ccc(-c3cn[nH]c3)cc2)CC(CO)N1Cc1ccccc1` (stereo not shown) [Example 38, 1-(4-(1H-Pyrazol-4-yl)phenyl)-3-benzyl-4-(hydroxymethyl)imidazolidin-2-one], for which the pIC50 is 7.70 to 8.68.

Consider `O=C1N(Cc2cccc(F)c2)CC(CO)N1c1ccc(-c2cn[nH]c2)cc1` (stereo not shown) [Example 39, 3-(4-(1H-Pyrazol-4-yl)phenyl)-1-(3-fluorobenzyl)-4-(hydroxymethyl)imidazolidin-2-one], for which the negative-log IC50 (pIC50) was 7.70 to 8.68.

As to `COc1cccc(CN2C(=O)N(c3ccc(-c4cn[nH]c4)c(OC)c3)CC2CO)c1` (stereo not shown) [Example 40, 4-(Hydroxymethyl)-1-(3-methoxy-4-(1H-pyrazol-4-yl)phenyl)-3-(3-methoxybenzyl)imidazolidin-2-one], the negative-log IC50 (pIC50) was > 8.70.

In the case of `COc1cc(N2CC(CO)N(Cc3ccccc3)C2=O)ccc1-c1cn[nH]c1` (stereo not shown) [Example 41, 3-Benzyl-4-(hydroxymethyl)-1-(3-methoxy-4-(1H-pyrazol-4-yl)phenyl)imidazolidin-2-one], the pIC50 is 7.70 to 8.68.

The compound `O=C1N(Cc2cccc(F)c2)CCN1c1ccc(-c2ccncc2F)cc1` [Example 49, 1-(3-fluorobenzyl)-3-(4-(3-fluoropyridin-4-yl)phenyl)imidazolidin-2-one] had a pIC50 of 6.70 to 7.70.

`COc1cccc(CN2CCN(c3ccc(-c4ccncc4F)cc3)C2=O)c1` [Example 50, 1-(4-(3-fluoropyridin-4-yl)phenyl)-3-(3-methoxybenzyl)imidazolidin-2-one] showed a negative logarithm of the IC50 (pIC50) of 6.70 to 7.70.

On to `O=C1N(Cc2cccc(F)c2)CCN1c1ccc(-c2ccnc(F)c2)cc1` [Example 51, 1-(3-fluorobenzyl)-3-(4-(2-fluoropyridin-4-yl)phenyl)imidazolidin-2-one], for which the pIC50 was 5.70 to 6.70.

On to `O=C1N(Cc2ccccc2)CCN1c1ccc(-c2ccncc2F)cc1` [Example 52, 1-benzyl-3-(4-(3-fluoropyridin-4-yl)phenyl)imidazolidin-2-one], for which the pIC50 is 6.70 to 7.70.

Compound `O=C1N(CCc2ccccc2)CCN1c1ccc(-c2ccncc2F)cc1` [Example 53, 1-(4-(3-fluoropyridin-4-yl)phenyl)-3-phenethylimidazolidin-2-one] showed a pIC50 of 5.70 to 6.70.

The compound `COc1cccc(CN2CCN(c3ccc(-c4ccnc(F)c4)cc3)C2=O)c1` [Example 54, 1-(4-(2-fluoropyridin-4-yl)phenyl)-3-(3-methoxybenzyl)imidazolidin-2-one] showed a negative logarithm of the IC50 (pIC50) of 6.70 to 7.70.

Compound `O=C1N(Cc2ccccc2)CCN1c1ccc(-c2ccncc2)cc1` [Example 55, 1-benzyl-3-(4-(pyridin-4-yl)phenyl)imidazolidin-2-one, TFA] showed a pIC50 of 6.70 to 7.70.

Take `O=C1N(Cc2cccc(F)c2)CCN1c1ccc(-c2ccncc2)cc1` [Example 56, 1-(3-fluorobenzyl)-3-(4-(pyridin-4-yl)phenyl)imidazolidin-2-one, TFA]: the negative-log IC50 (pIC50) is 6.70 to 7.70.

`O=C1N(Cc2ccccc2F)CCN1c1ccc(-c2ccncc2)cc1` [Example 57, 1-(2-fluorobenzyl)-3-(4-(pyridin-4-yl)phenyl)imidazolidin-2-one, TFA] gave a pIC50 of 5.70 to 6.70.

`COc1ccc(F)c(CN2CCN(c3ccc(-c4ccncc4)c(OC)c3)C2=O)c1` [Example 58, 1-(2-fluoro-5-methoxybenzyl)-3-(3-methoxy-4-(pyridin-4-yl)phenyl)imidazolidin-2-one, TFA] gave a pIC50 of 5.70 to 6.70.

The compound `COc1cc(N2CCN(Cc3cccc(F)c3)C2=O)ccc1-c1ccncc1` [Example 59, 1-(3-fluorobenzyl)-3-(3-methoxy-4-(pyridin-4-yl)phenyl)imidazolidin-2-one, TFA] had a pIC50 of 6.70 to 7.70.

`O=C1N(Cc2ccccc2)CCN1c1ccc(-c2cnoc2)cc1` [Example 60, 1-benzyl-3-(4-(isoxazol-4-yl)phenyl)imidazolidin-2-one] gave a negative-log IC50 (pIC50) of 6.70 to 7.70.

`O=C1N(Cc2cccc(F)c2)CCN1c1ccc(-c2cnoc2)cc1` [Example 61, 1-(3-fluorobenzyl)-3-(4-(isoxazol-4-yl)phenyl)imidazolidin-2-one] had a negative logarithm of the IC50 (pIC50) of 5.70 to 6.70.

For the compound `COc1cccc(CN2CCN(c3ccc(-c4ccnc(N)c4)cc3)C2=O)c1` [Example 62, 1-(4-(2-Aminopyridin-4-yl)phenyl)-3-(3-methoxybenzyl)imidazolidin-2-one, TFA], the negative-log IC50 (pIC50) was 6.70 to 7.70.

Consider `COc1cccc(CN2CCN(c3ccc(-c4ccnc(N)n4)cc3)C2=O)c1` [Example 63, 1-(4-(2-Aminopyrimidin-4-yl)phenyl)-3-(3-methoxybenzyl)imidazolidin-2-one], for which the negative logarithm of the IC50 (pIC50) is 6.70 to 7.70.

`COc1cccc(CN2CCN(c3ccc(-c4ncnc5[nH]ccc45)cc3)C2=O)c1` [Example 64, 1-(4-(7H-Pyrrolo[2,3-d]pyrimidin-4-yl)phenyl)-3-(3-methoxybenzyl)imidazolidin-2-one] had a negative-log IC50 (pIC50) of 5.70 to 6.70.

As for `COc1cccc(CN2CCN(c3ccc(-c4ccnc5[nH]ccc45)cc3)C2=O)c1` [Example 65, 1-(4-(1H-Pyrrolo[2,3-b]pyridin-4-yl)phenyl)-3-(3-methoxybenzyl)imidazolidin-2-one], the negative-log IC50 (pIC50) was 7.70 to 8.68.

`COc1ccccc1CCn1ccn(-c2ccc(-c3cn[nH]c3)cc2)c1=O` [Example 66, 1-(4-(1H-Pyrazol-4-yl)phenyl)-3-(2-methoxyphenethyl)-1H-imidazol-2(3H)-one] had a negative logarithm of the IC50 (pIC50) of 5.70 to 6.70.

`O=c1n(Cc2ccc(F)cc2)ccn1-c1ccc(-c2cn[nH]c2)cc1` [Example 67, 1-(4-(1H-pyrazol-4-yl)phenyl)-3-(4-fluorobenzyl)-1H-imidazol-2(3H)-one] had a negative-log IC50 (pIC50) of 6.70 to 7.70.

Consider `O=c1n(Cc2c(F)cccc2F)ccn1-c1ccc(-c2cn[nH]c2)cc1` [Example 68, 1-(4-(1H-pyrazol-4-yl)phenyl)-3-(2,6-difluorobenzyl)-1H-imidazol-2(3H)-one], for which the pIC50 is 6.70 to 7.70.

`O=c1n(Cc2ccccc2F)ccn1-c1ccc(-c2cn[nH]c2)cc1` [Example 69, 1-(4-(1H-pyrazol-4-yl)phenyl)-3-(2-fluorobenzyl)-1H-imidazol-2(3H)-one]: the negative logarithm of the IC50 (pIC50) is 6.70 to 7.70.
